Reference: the supplement of paper PMC5373622, “Screening for AMPA receptor auxiliary subunit specific modulators” (PLoS ONE, 2017)
± gives the standard deviation of the averaged measurements.

Experiments:
GRIA2 [1] = assay: compound-evoked VSD slope (no glutamate), % of maximal glutamate slope; higher = agonist activity
Protocol: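 VSD concentration-response of known AMPAR ligands (fluorowillardiine, CX-546, cyclothiazide) on A2R-stg and A2R-C3 HEK293 cells, with compound added before EC50 glutamate. Per-well GluSlope and compound-window slope are given as % of the maximal-glutamate slope after vehicle subtraction.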

GRIA2 [2] = assay: glutamate-evoked VSD slope, % of maximal glutamate response; higher = potentiation

Structure (SMILES) | compound-evoked VSD slope (GRIA2 [1]; 3.91 µM, clone: A2R-C3) | compound-evoked VSD slope (GRIA2 [1]; 3.91 µM, clone: A2R-stg) | compound-evoked VSD slope (GRIA2 [1]; 7.81 µM, clone: A2R-C3) | compound-evoked VSD slope (GRIA2 [1]; 7.81 µM, clone: A2R-stg) | compound-evoked VSD slope (GRIA2 [1]; 15.6 µM, clone: A2R-C3) | compound-evoked VSD slope (GRIA2 [1]; 15.6 µM, clone: A2R-stg) | compound-evoked VSD slope (GRIA2 [1]; 31.2 µM, clone: A2R-C3) | compound-evoked VSD slope (GRIA2 [1]; 31.2 µM, clone: A2R-stg) | compound-evoked VSD slope (GRIA2 [1]; 62.5 µM, clone: A2R-C3) | compound-evoked VSD slope (GRIA2 [1]; 62.5 µM, clone: A2R-stg) | compound-evoked VSD slope (GRIA2 [1]; 0.000125 M, clone: A2R-C3) | compound-evoked VSD slope (GRIA2 [1]; 0.000125 M, clone: A2R-stg) | compound-evoked VSD slope (GRIA2 [1]; 0.0005 M, clone: A2R-C3) | compound-evoked VSD slope (GRIA2 [1]; 0.001 M, clone: A2R-C3) | glutamate-evoked VSD slope (GRIA2 [2]; 3.91 µM, clone: A2R-C3) | glutamate-evoked VSD slope (GRIA2 [2]; 7.81 µM, clone: A2R-C3) | glutamate-evoked VSD slope (GRIA2 [2]; 7.81 µM, clone: A2R-stg) | glutamate-evoked VSD slope (GRIA2 [2]; 15.6 µM, clone: A2R-C3) | glutamate-evoked VSD slope (GRIA2 [2]; 15.6 µM, clone: A2R-stg) | glutamate-evoked VSD slope (GRIA2 [2]; 31.2 µM, clone: A2R-stg) | glutamate-evoked VSD slope (GRIA2 [2]; 62.5 µM, clone: A2R-C3) | glutamate-evoked VSD slope (GRIA2 [2]; 62.5 µM, clone: A2R-stg) | glutamate-evoked VSD slope (GRIA2 [2]; 0.000125 M, clone: A2R-C3) | glutamate-evoked VSD slope (GRIA2 [2]; 0.00025 M, clone: A2R-stg) | glutamate-evoked VSD slope (GRIA2 [2]; 0.0005 M, clone: A2R-C3) | glutamate-evoked VSD slope (GRIA2 [2]; 0.001 M, clone: A2R-C3) | glutamate-evoked VSD slope (GRIA2 [2]; 0.001 M, clone: A2R-stg) | compound-evoked VSD slope (GRIA2 [1]; 1.95 µM, clone: A2R-C3) | compound-evoked VSD slope (GRIA2 [1]; 1.95 µM, clone: A2R-stg) | compound-evoked VSD slope (GRIA2 [1]; 0.00025 M, clone: A2R-C3) | compound-evoked VSD slope (GRIA2 [1]; 0.00025 M, clone: A2R-stg) | compound-evoked VSD slope (GRIA2 [1]; 0.0005 M, clone: A2R-stg) | glutamate-evoked VSD slope (GRIA2 [2]; 1.95 µM, clone: A2R-C3) | glutamate-evoked VSD slope (GRIA2 [2]; 1.95 µM, clone: A2R-stg) | glutamate-evoked VSD slope (GRIA2 [2]; 3.91 µM, clone: A2R-stg) | glutamate-evoked VSD slope (GRIA2 [2]; 31.2 µM, clone: A2R-C3) | glutamate-evoked VSD slope (GRIA2 [2]; 0.000125 M, clone: A2R-stg) | glutamate-evoked VSD slope (GRIA2 [2]; 0.0005 M, clone: A2R-stg)
O=C(c1ccc2c(c1)OCCO2)N1CCCCC1 [CX-546] | 16.4 ± 1.7% | 26.8 ± 0.99% | 16.9 ± 0.81% | 27.4 ± 1% | 16.1 ± 4.3% | 26.7 ± 1.3% | 16.2 ± 3.6% | 26.7 ± 1.4% | 18.9 ± 2.4% | 28 ± 0.66% | 18.9 ± 0.99% | 29.5 ± 0.74% | 23.4 ± 0.91% | 29.1 ± 1.2% | 12.5 ± 1.8% | 10.8 ± 3.4% | 20.7 ± 4.5% | 15.8 ± 6.4% | 24.6 ± 8% | 24.9 ± 3.2% | 23 ± 2% | 41.4 ± 4.9% | 25.6 ± 3.4% | 53.6 ± 3% | 40.3 ± 4.6% | 47.6 ± 10% | 54.1 ± 3.9% |  |  |  |  |  |  |  |  |  |  | 
NS(=O)(=O)c1cc2c(cc1Cl)NC(C1CC3C=CC1C3)NS2(=O)=O (configuration not stated) [cyclothiazide] | 18.4 ± 1.1% | 26.6 ± 1.6% | 15.7 ± 1.1% | 27.1 ± 1.4% | 18 ± 1.3% | 27.3 ± 0.81% | 18.6 ± 0.53% | 27.7 ± 1.1% | 18.6 ± 1.4% | 28.8 ± 0.79% | 19.2 ± 1.4% | 29 ± 0.62% | 20.7 ± 1.4% |  | 26.7 ± 2.5% | 42.8 ± 3.3% | 52.6 ± 3.2% | 56.6 ± 5.3% | 60 ± 5.6% | 62.7 ± 9.1% | 70.9 ± 3.4% | 68.8 ± 4% | 63.8 ± 21% | 71.3 ± 3.3% | 69 ± 4.6% |  |  | 16.2 ± 1.1% | 27.7 ± 0.73% | 20.3 ± 1.3% | 28.2 ± 1.1% | 27.5 ± 1.8% | 23 ± 3.3% | 30.6 ± 5.6% | 37.5 ± 5.1% | 65.2 ± 3.7% | 68.4 ± 3.5% | 65.9 ± 8.1%
